Several values for one entry are separate records, joined by “and”; a condition that tells them apart may be missing. Equal values may be shown once. Entries after “also recorded” stand apart in the source; their conditions may differ.
Legend:
Type in all cases: physicochemical
[1] = Hygroscopicity by DVS (Dynamic Vapour Sorption); conditions: for water uptake / moisture sorption: at 95% RH (0-95% RH); for hygroscopicity, comparison of batches 722 and 723: between 0 and 65% RH
Method: This is a gravimetric technique that measures how much water is absorbed or desorbed by a sample at different relative humidity (RH). At each RH, the sample mass must be allowed to reach gravimetric equilibrium (or surpassed time limit) before progressing to the next humidity level. Sorption and desorption isotherms will be performed at 25° C. over a range of 0-95% RH. The type of sorption isotherm is determined by the pore size and surface character of the material.

[2] = Kinetic solubility study in water, HPLC area of Enclomiphene peak;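 for HPLC a/a: suspension in 24 mL Water and the filtered mother liquor analysed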;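 for average HPLC a/a: suspension in 24 mL Water and the filtered mother liquor analysed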
Method: (§1) The filtered solid was analyzed by XRPD.
These HPLC conditions were used to perform solubility analysis.

[3] = Kinetic solubility study at pH 4.5 (acetic acid/sodium acetate buffer), HPLC area
Method: as §1
Solubility at a slightly acid medium was determined at pH 4.5 buffer used was a mixture acetic acid/sodium acetate prepared according to USP specifications. […]

SMILES | hygroscopicity, comparison of batches 722 and 723 ([1]; DVS) | average HPLC a/a ([2]; 0 min) [a/a] | HPLC a/a ([2]; 0 min, replicate 1) [a/a] | HPLC a/a ([2]; 0 min, replicate 2) [a/a] | HPLC a/a ([2]; 0 min, replicate 3) [a/a] | average HPLC a/a ([2]; 15 min) [a/a] | HPLC a/a ([2]; 15 min, replicate 1) [a/a] | HPLC a/a ([2]; 15 min, replicate 2) [a/a] | HPLC a/a ([2]; 15 min, replicate 3) [a/a] | average HPLC a/a ([2]; 45 min) [a/a] | HPLC a/a ([2]; 45 min, replicate 1) [a/a] | HPLC a/a ([2]; 45 min, replicate 2) [a/a] | HPLC a/a ([2]; 45 min, replicate 3) [a/a] | average HPLC a/a ([2]; 90 min) [a/a] | HPLC a/a ([2]; 90 min, replicate 1) [a/a] | HPLC a/a ([2]; 90 min, replicate 2) [a/a] | HPLC a/a ([2]; 90 min, replicate 3) [a/a] | average HPLC a/a ([2]; 180 min) [a/a] | HPLC a/a ([2]; 180 min, replicate 1) [a/a] | HPLC a/a ([2]; 180 min, replicate 2) [a/a] | further results
CCN(CC)CCOc1ccc(/C(=C(/Cl)c2ccccc2)c2ccccc2)cc1.O=C(O)CC(O)(CC(=O)O)C(=O)O [Enclomiphene citrate having needle crystals] [Ethanamine, 2-[4-[(1E)-2-chloro-1,2-diphenylethenyl]phenoxy]-N,N-diethyl-, 2-hydroxy-1,2,3-propanetricarboxylate (1:1)] | identical | 0 | 0 | 0 | 0 | 5152 | 4099 | 6104 | 3273 | 4962 | 5206 | 5457 | 3225 | 5334 | 5085 | 5426 | 2988 | 4126 | 4120 | 5327 | water uptake / moisture sorption ([1]; DVS, 25° C., listed as batch 723): 2.33 % weight and 2.3 % weight; HPLC a/a ([2]; 180 min, replicate 3): 3208 a/a; solubility in water compared with Enclomiphene citrate having non-needle shaped crystal habit ([2]; listed as Enclomiphene citrate having needle shaped crystal habit): almost double; also recorded: almost two times; Average a/a ([3]; pH 4.5, 0 min): 0 a/a; HPLC a/a ([3]; pH 4.5, 0 min, replicate 1): 0 a/a; HPLC a/a ([3]; pH 4.5, 0 min, replicate 2): 0 a/a; Average a/a ([3]; pH 4.5, 15 min): 4135 a/a; HPLC a/a ([3]; pH 4.5, 15 min, replicate 1): 3941 a/a; HPLC a/a ([3]; pH 4.5, 15 min, replicate 2): 4330 a/a; Average a/a ([3]; pH 4.5, 45 min): 4024 a/a; HPLC a/a ([3]; pH 4.5, 45 min, replicate 1): 3978 a/a; HPLC a/a ([3]; pH 4.5, 45 min, replicate 2): 4070 a/a; Average a/a ([3]; pH 4.5, 90 min): 5109 a/a; HPLC a/a ([3]; pH 4.5, 90 min, replicate 1): 4889 a/a; HPLC a/a ([3]; pH 4.5, 90 min, replicate 2): 5329 a/a; Average a/a ([3]; pH 4.5, 180 min): 5079 a/a; HPLC a/a ([3]; pH 4.5, 180 min, replicate 1): 5098 a/a; HPLC a/a ([3]; pH 4.5, 180 min, replicate 2): 5060 a/a; solubility at pH 4.5 compared with Enclomiphene citrate having non-needle crystals ([3]; pH 4.5 buffer, listed as Enclomiphene citrate having needle shaped crystal habit): four times higher
CCN(CC)CCOc1ccc(/C(=C(/Cl)c2ccccc2)c2ccccc2)cc1.O=C(O)CC(O)(CC(=O)O)C(=O)O [Enclomiphene citrate having non-needle crystals] [Ethanamine, 2-[4-[(1E)-2-chloro-1,2-diphenylethenyl]phenoxy]-N,N-diethyl-, 2-hydroxy-1,2,3-propanetricarboxylate (1:1), reference compound] | identical | 0 | 0 | 0 | 0 | 2858 | 1819 | 3483 | 3273 | 3226 | 3083 | 3370 | 3225 | 2772 | 3229 | 2099 | 2988 | 3265 | 2991 | 3597 | water uptake / moisture sorption ([1]; DVS, 25° C., listed as batch 722): 6 % weight; moisture sorption ([1]; DVS, 25° C., between 0% and 65% RH): 2 % weight; water absorption at high humidity ([1]; humidity higher than 65% RH (FIG. 9)): absorbs relevant amounts of water; HPLC a/a ([2]; 180 min, replicate 3): 3208 a/a; Average a/a ([3]; pH 4.5, 0 min): 0 a/a; HPLC a/a ([3]; pH 4.5, 0 min, replicate 1): 0 a/a; HPLC a/a ([3]; pH 4.5, 0 min, replicate 2): 0 a/a; Average a/a ([3]; pH 4.5, 15 min): 1185 a/a; HPLC a/a ([3]; pH 4.5, 15 min, replicate 1): 1294 a/a; HPLC a/a ([3]; pH 4.5, 15 min, replicate 2): 1077 a/a; Average a/a ([3]; pH 4.5, 45 min): 924 a/a; HPLC a/a ([3]; pH 4.5, 45 min, replicate 1): 907 a/a; HPLC a/a ([3]; pH 4.5, 45 min, replicate 2): 941 a/a; Average a/a ([3]; pH 4.5, 90 min): 1095 a/a; HPLC a/a ([3]; pH 4.5, 90 min, replicate 1): 1279 a/a; HPLC a/a ([3]; pH 4.5, 90 min, replicate 2): 912 a/a; Average a/a ([3]; pH 4.5, 180 min): 1052 a/a; HPLC a/a ([3]; pH 4.5, 180 min, replicate 1): 1008 a/a; HPLC a/a ([3]; pH 4.5, 180 min, replicate 2): 1096 a/a

From patent US10364212B2 (F.I.S.—FABBRICA ITALIANA SINTETICI S.P.A., priority 2016, dated 2019)
